Test results reported in the supplement of paper PMC10307832.

What was measured:
Assay in all cases: relative viability (nuclei count vs DMSO), 5 days (fraction); higher = more cells survive
[1] = compound: C1CNCCC1C2=CC(=NN2)C3=CC=NC=C3 + CC1(C)CCC(c2ccc(Cl)cc2)=C(CN2CCN(c3ccc(C(=O)NS(=O)(=O)c4ccc(N[C@H](CCN5CCOCC5)CSc5ccccc5)c(S(=O)(=O)C(F)(F)F)c4)cc3)CC2)C1 [Navitoclax] (partner 0.5 µM)
Outline: (§1)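 After 5 days of treatment, lung cancer cells in 1536-well plates were fixed and stained in a single step (final 0.05% Triton X-100, 1% formaldehyde, 1 ug/ml Hoechst) and their nuclei counted on 4× images. Treatment had been applied by pin tool the day after seeding as one drug alone or as a fixed anchor-drug dose with five library-drug doses (not always all listed) in √10 steps. Relative viability is the nuclei count of treated wells divided by that of vehicle wells, and values are medians of duplicate plates.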

[2] = compound: C1CNCCC1C2=CC(=NN2)C3=CC=NC=C3 + O=C(CCCCCCC(=O)Nc1ccccc1)NO [Vorinostat] (partner 1 µM)
Outline: as §1

[3] = compound: C[C@@H](N)c1ccc(C(=O)Nc2ccnc3[nH]ccc23)cc1 + O=C(CCCCCCC(=O)Nc1ccccc1)NO [Vorinostat] (partner 1 µM)
Outline: as §1

Cell Line	relative viability ([1]; first compound 0.08 µM)	relative viability ([1]; first compound 0.8 µM)	relative viability ([1]; first compound 2.53 µM)	relative viability ([1]; first compound 8 µM)	relative viability ([2]; first compound 0.08 µM)	relative viability ([2]; first compound 0.8 µM)	relative viability ([2]; first compound 2.53 µM)	relative viability ([2]; first compound 8 µM)	relative viability ([3]; first compound 0.04 µM)	relative viability ([3]; first compound 0.1265 µM)	relative viability ([3]; first compound 0.4 µM)	relative viability ([3]; first compound 1.265 µM)	relative viability ([3]; first compound 4 µM)
NCI-H838	1.13	1.11	1.25	1.14	0.763	0.744	0.744	0.688	0.763	0.657	0.583	0.41	0.307
NCI-H1355	0.919	0.813	1.09	0.871	0.637	0.629	0.788	0.637	0.663	0.626	0.686	0.583	0.57
NCI-H1395	1.15	0.976	1.23	1.13	0.668	0.597	0.842	0.792	0.622	0.772	0.704	–	0.796
NCI-H1437	1.06	1.11	1.1	1.12	0.863	0.94	0.912	0.971	0.882	0.874	0.991	1.02	1.03
NCI-H1650	1.11	1.37	1.12	1.22	0.46	0.597	0.804	0.489	0.7	0.663	0.675	0.663	0.648
NCI-H1651	0.897	1.07	0.963	1.16	0.512	0.581	0.577	0.589	0.603	0.526	0.647	0.586	0.561
NCI-H1666	0.807	0.877	1.06	1.02	0.964	1.06	1.07	1.08	1.1	1.05	1.22	1.5	1.31
NCI-H1734	0.703	1.01	0.88	0.852	0.749	0.873	0.89	0.85	0.701	0.791	0.823	0.576	0.806
NCI-H1755	0.978	0.942	1.04	0.935	0.717	0.737	0.628	0.736	0.672	0.737	0.75	0.811	0.826
NCI-H1793	0.305	0.331	0.414	0.526	0.647	–	0.985	0.874	0.894	0.905	0.991	–	1.01
NCI-H1915	0.798	0.784	0.78	0.778	0.542	0.554	0.519	0.55	–	0.546	0.547	–	0.462
NCI-H1944	0.989	0.937	1.09	1	0.435	0.555	0.603	0.522	0.56	0.553	0.616	0.491	0.582
NCI-H1975	1.18	1.2	1.19	1.09	0.74	0.758	0.702	0.685	0.734	0.649	0.667	0.609	0.584
NCI-H1993	0.9	0.866	1.01	0.908	0.883	0.722	0.767	1.03	0.772	1.02	–	0.811	0.718
NCI-H2009	1.16	1.18	1.17	1.14	0.754	0.693	0.8	0.728	0.617	0.703	0.683	0.703	0.632
NCI-H2023	0.909	1.05	1.06	0.979	0.262	0.589	0.767	0.602	0.645	0.621	0.863	–	0.819
NCI-H2085	1.21	0.869	1.18	1.24	0.858	–	0.809	0.845	0.77	0.705	0.806	0.667	0.706
NCI-H2087	1.04	0.973	0.969	0.903	0.682	0.8	0.738	0.684	0.659	0.58	0.466	0.593	0.549
NCI-H2126	0.858	0.832	0.821	0.828	0.79	0.712	0.778	0.797	1.02	0.685	0.738	0.432	0.916
NCI-H2170	0.472	0.697	0.72	0.698	0.658	0.825	0.771	0.762	0.854	0.886	0.902	0.771	0.846
NCI-H2228	0.82	1.31	0.647	0.951	0.537	0.589	0.667	0.587	0.832	0.576	0.638	0.976	0.56
NCI-H2347	0.784	0.556	0.855	0.823	0.541	0.486	0.573	0.627	0.762	0.508	0.554	0.559	0.676
